This note sets out measurements from patent US8632759B2, “Hair restorer” (Cosmo Oil Co., Ltd., priority 2004, dated 2014).

The subject of this assay is C3H/HeNCrJ mice. Description: Hair growth test on clipped backs of mice. Format: in vivo. Conditions: C3H/HeNCrJ mice in telogen phase, n=3; 0.2 ml sprayed on clipped back once a day; hair measured under microscope. The source says:
In Table 1,5-aminolevulinic acid (sometimes abbreviated as ALA) of the present invention and iron compounds, and the blend compositions of them and urea are shown in wt %. For 1 g of ALA, 0.4 g of ferrous citrate, 2.81 g of iron lactate, 5.7 g of iron sodium diethylenetriaminepentaacetate, 5.6 g of iron ammonium diethylenetriaminepentaacetate, and 0.36 g of ferrous gluconate were blended respectively. The body hair on the backs of C3H/HeNCrJ mice (n=3 in each group), which were in telogen phase of hair growth cycle, was clipped with a hair clipper, and each suspension shown in Table 1 was applied to the back once a day, in an amount of 0.2 ml, by spraying uniformly.
In addition, photographs of the backs of mice on which the sample No. 8 of the present invention, 5% minoxidil (positive control), and distilled water (negative control) were respectively applied were taken 20 days after the application.

As to `Nc1cc(N2CCCCC2)nc(N)[n+]1[O-]` [5% Minoxidil, 6-(1-piperidinyl)-2,4-pyrimidinediamine-3-oxide], the “Hair Length after 2 weeks” value is 1.70 mm.

For `NCC(=O)CCC(=O)O` [Control, 5-aminolevulinic acid], the “Hair Length after 2 weeks” value is given as 1.08 mm.
